Data taken from publication PMC4186683 (Molecular Pharmaceutics, 2014).
Marks after values point to notes of the source that are not given here.

Tested on: not given
Test: not given
Conditions: DMPC bilayer; listed in Table 1; cited from earlier work

Row | SMILES | log P bilayer/water exptl
1 | Cc1ccc(C)cc1 [compound 6, 1,4-dimethylbenzene] | 2.98
2 | OCc1ccccc1 [compound 89, benzylalcohol] | 2.03
3 | OCc1c2ccccc2cc2ccccc12 [compound 82, 9-anthracenemethanol] | 3.50
4 | CCCc1ccccc1 [compound 101, n-propylbenzene] | 3.29
5 | CC(C)(c1ccc(O)cc1)c1ccc(O)cc1 [compound 91, bisphenol A] | 2.95

Tested on: not listed separately
Test: Fraction of total tissue amount present in the bilayer, calculated from Pb/w
Conditions: bilayer volume 2.5% of tissue volume, no protein binding

Row | SMILES | fraction of the total amount in the tissue present in the bilayer
6 | Cc1cc(O)ccc1Cl [compound 74, 4-chloro-3-methylphenol] | 97%
7 | OCc1c2ccccc2cc2ccccc12 [compound 82, 9-anthracenemethanol] | 99%
8 | c1ccc2[nH]ccc2c1 [compound 111, indole] | 81%
9 | CCCCCCO [compound 11, 1-hexanol] | 68%
10 | BrCCc1ccccc1 [compound 7, 1-bromo-2-phenylethane] | 93%

Tested on: not given
Test: not given
Conditions: marked values, listed in Table 1; cited from earlier work

Row | SMILES | log P C16/DAcPC
11 | Cc1ccc(C)cc1 [compound 6, 1,4-dimethylbenzene] | 2.59 ^b
12 | OCc1c2ccccc2cc2ccccc12 [compound 82, 9-anthracenemethanol] | –0.42 ^b
13 | CCCc1ccccc1 [compound 101, n-propylbenzene] | 2.98 ^b
14 | CC(C)(c1ccc(O)cc1)c1ccc(O)cc1 [compound 91, bisphenol A] | –2.70 ^b

Tested on: not given
Test: not given
Conditions: experimental values from the ClogP database ref 119; cited from earlier work

Row | SMILES | logP O/W
15 | Clc1ccccc1-c1ccccc1 [compound 58, 2-chlorobiphenyl] | 4.53
16 | O=C(c1ccccc1)c1ccc(Cl)cc1 [compound 75, 4-chlorobenzophenone] | 3.79
17 | CCOC(=O)c1cccnc1 [compound 95, ethylnicotinate] | 1.32
18 | Clc1cccc(-c2ccccc2Cl)c1 [compound 44, 2,3′-dichlorobiphenyl] | 5.02
19 | Clc1cccc(-c2cccc(Cl)c2Cl)c1Cl [compound 18, 2,2′,3,3′-tetrachlorobiphenyl] | 6.18
20 | Clc1cc(Cl)c(-c2ccccc2Cl)cc1Cl [compound 26, 2,2′,4,5-tetrachlorobiphenyl] | 6.27
21 | Clc1cc(Cl)cc(Cl)c1 [compound 2, 1,3,5-trichlorobenzene] | 4.19
22 | Cc1cc(O)ccc1Cl [compound 74, 4-chloro-3-methylphenol] | 3.10
23 | Clc1ccccc1-c1ccccc1Cl [compound 33, 2,2′-dichlorobiphenyl] | 4.97
24 | CN(C)c1ccc(C=O)cc1 [compound 77, 4-dimethylamino-benzaldehyde] | 2.01
25 | Clc1cccc(-c2c(Cl)cccc2Cl)c1 [compound 41, 2,3′,6-trichlorobiphenyl] | 5.67
26 | Clc1ccccc1-c1c(Cl)cccc1Cl [compound 31, 2,2′,6-trichlorobiphenyl] | 5.47
27 | c1ccc2c(c1)ccc1ccccc12 [compound 104, phenanthrene] | 4.46
28 | Clc1cc(Cl)c(-c2c(Cl)cc(Cl)cc2Cl)c(Cl)c1 [compound 24, 2,2′,4,4′,6,6′-hexachlorobiphenyl] | 7.29
29 | Clc1ccc(Br)cc1 [compound 9, 1-bromo-4-chlorobenzene] | 3.54
30 | Clc1ccc(Cl)c(-c2cc(Cl)ccc2Cl)c1 [compound 29, 2,2′,5,5′-tetrachlorobiphenyl] | 6.26
31 | Clc1cccc(-c2cc(Cl)ccc2Cl)c1 [compound 39, 2,3′,5-trichlorobiphenyl] | 5.76
32 | Clc1cccc(-c2ccccc2)c1Cl [compound 43, 2,3-dichlorobiphenyl] | 4.99
33 | CC(=O)c1ccc(N)cc1 [compound 68, 4-aminoacetophenone] | 0.86
34 | Clc1cc(-c2ccccc2)c(Cl)c(Cl)c1Cl [compound 36, 2,3,4,5-tetrachlorobiphenyl] | 6.41
35 | Clc1c(Cl)c(Cl)c(-c2ccccc2)c(Cl)c1Cl [compound 35, 2,3,4,5,6-pentachlorobiphenyl] | 6.74
36 | Clc1cc(Cl)c(-c2ccccc2)c(Cl)c1 [compound 47, 2,4,6-trichlorobiphenyl] | 5.71
37 | COc1cccc(OC)c1O [compound 54, 2,6-dimethoxyphenol] | 1.15
38 | Clc1ccc(-c2c(Cl)cccc2Cl)cc1 [compound 48, 2,4′,6-trichlorobiphenyl] | 5.75
39 | BrCCCc1ccccc1 [compound 8, 1-bromo-3-phenylpropane] | 3.72
40 | Brc1cccc2ccccc12 [compound 10, 1-bromonaphthalene] | 4.06
41 | Clc1cc(Cl)c(-c2ccccc2)cc1Cl [compound 46, 2,4,5-trichlorobiphenyl] | 5.90

Row | SMILES | logP O/W
42 | Clc1cccc(-c2ccc(Cl)c(Cl)c2Cl)c1Cl [compound 16, 2,2′,3,3′,4-pentachlorobiphenyl] | 6.30
43 | Cc1cccc(C)c1[N+](=O)[O-] [compound 4, 1,3-dimethyl-2-nitrobenzene] | 2.95
44 | Clc1ccc(-c2ccccc2Cl)c(Cl)c1 [compound 28, 2,2′,4-trichlorobiphenyl] | 5.76
45 | Cc1ccc2cc3ccccc3cc2c1 [compound 60, 2-methylanthracene] | 5.00
46 | Clc1ccc(-c2cc(Cl)ccc2Cl)c(Cl)c1 [compound 27, 2,2′,4,5′-tetrachlorobiphenyl] | 6.36
47 | Clc1ccc(-c2ccccc2Cl)cc1 [compound 50, 2,4′-dichlorobiphenyl] | 5.10
48 | Clc1ccc(Cl)c(-c2cc(Cl)c(Cl)cc2Cl)c1 [compound 25, 2,2′,4,5,5′-pentachlorobiphenyl] | 6.85
49 | Cc1ccccc1Br [compound 57, 2-bromotoluene] | 3.50
50 | BrCCc1ccccc1 [compound 7, 1-bromo-2-phenylethane] | 3.09
51 | Clc1ccc(-c2ccccc2)c(Cl)c1 [compound 49, 2,4-dichlorobiphenyl] | 5.30
52 | Clc1ccc(Cl)c(-c2c(Cl)ccc(Cl)c2Cl)c1Cl [compound 17, 2,2′,3,3′,6,6′-hexachlorobiphenyl] | 7.12
53 | Clc1ccc(-c2ccc(Cl)c(Cl)c2Cl)c(Cl)c1Cl [compound 14, 2,2′,3,3′,4,4′-hexachlorobiphenyl] | 7.32
54 | Clc1cccc(Cl)c1 [compound 3, 1,3-dichlorobenzene] | 3.53
55 | Cc1ccc(C)c(O)c1 [compound 52, 2,5-dimethylphenol] | 2.33
56 | Clc1ccc(Cl)c(-c2ccccc2)c1 [compound 51, 2,5-dichlorobiphenyl] | 5.16
57 | Nc1cccc(Br)c1 [compound 63, 3-bromoaniline] | 2.10
58 | Nc1cc2ccccc2cc1N [compound 42, 2,3-diaminonaphthalene] | 1.54
59 | Clc1ccccc1 [compound 92, chlorobenzene] | 2.89
60 | Nc1ccc(Br)cc1 [compound 71, 4-bromoaniline] | 2.11
61 | Nc1cc(Cl)c(Cl)cc1Cl [compound 45, 2,4,5-trichloroaniline] | 3.69
62 | Clc1ccc(Cl)c(-c2cccc(Cl)c2Cl)c1 [compound 21, 2,2′,3,5′-tetrachlorobiphenyl] | 5.81
63 | Clc1cccc(Cl)c1-c1ccccc1 [compound 53, 2,6-dichlorobiphenyl] | 4.98
64 | Clc1ccccc1Cl [compound 1, 1,2-dichlorobenzene] | 3.43
65 | Cc1ccc([N+](=O)[O-])cc1 [compound 79, 4-nitrotoluene] | 2.37
66 | Clc1ccccc1-c1cccc(Cl)c1Cl [compound 23, 2,2′,3-trichlorobiphenyl] | 5.60
67 | Clc1ccc(Cl)c(-c2ccccc2)c1Cl [compound 40, 2,3,6-trichlorobiphenyl] | 5.67
68 | CCCCCc1ccc(O)cc1 [compound 80, 4-n-pentylphenol] | 4.24

Tested on: rhodopsin
Test: not given
Conditions: 1-palmitoyl-2-oleoyl-PC vesicles ref 132; cited from earlier work

Row | SMILES | effect on photolysis of rhodopsin
69 | CCO [compound 94, ethanol] | promoting effect
70 | CCCCCCO [compound 11, 1-hexanol] | negligible
71 | CCCCCO [compound 114, 1-pentanol] | promoting effect
72 | CCCCO [compound 113, 1-butanol] | promoting effect
73 | CCCCCCCO [compound 115] | inhibitory effect
74 | CCCCCCCCO [compound 116] | inhibitory effect
